# Measured values reported in PMC12473028, “Isolation and Biological Evaluation of Human Tyrosinase Inhibitors from the Fruit of Xanthium strumarium L” (Molecules, 2025).
# Where two headings read alike, the source gives them in different places.
# Legend:
# Assay in all cases: L-DOPA oxidation assay in MM418C1 cell lysate, single dose […] ([…] activity remaining)
# Conditions in all cases: read-out: % activity remaining at 1 mg/mL
# human tyrosinase (hsTYR) [1] = target: T1, human tyrosinase (hsTYR) (Homo sapiens, UniProt P14679); assay type: cell-free (cell lysate)
# T1 construct: gene TYR
# T1 sequence (P14679 19-529): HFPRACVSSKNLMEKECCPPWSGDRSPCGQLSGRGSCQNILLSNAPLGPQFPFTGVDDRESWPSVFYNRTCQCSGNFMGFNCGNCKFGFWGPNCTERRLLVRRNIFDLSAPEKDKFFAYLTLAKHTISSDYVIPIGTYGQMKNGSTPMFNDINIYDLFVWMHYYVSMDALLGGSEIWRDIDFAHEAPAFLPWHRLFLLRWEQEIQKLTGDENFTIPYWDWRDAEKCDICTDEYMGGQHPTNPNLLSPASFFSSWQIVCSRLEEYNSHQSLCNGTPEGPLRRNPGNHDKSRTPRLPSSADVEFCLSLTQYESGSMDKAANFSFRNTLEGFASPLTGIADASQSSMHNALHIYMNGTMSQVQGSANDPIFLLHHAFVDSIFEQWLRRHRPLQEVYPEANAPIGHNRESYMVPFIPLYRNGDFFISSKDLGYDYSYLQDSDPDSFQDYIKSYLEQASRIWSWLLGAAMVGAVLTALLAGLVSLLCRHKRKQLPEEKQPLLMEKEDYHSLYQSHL
# human tyrosinase (hsTYR) [2] = target: T1, human tyrosinase (hsTYR); assay type: cell-free
# human tyrosinase (hsTYR) [3] = target: T1, human tyrosinase (hsTYR); assay type: biochemical
smiles,measurement,setting,value
"O=C(/C=C/c1ccc(O)c(O)c1)O[C@@H]1C[C@](O)(C(=O)O)C[C@@H](O)[C@H]1O [compound 7, 5-caffeoylquinic acid]",remaining activity at 1000 µg/mL,human tyrosinase (hsTYR) [1],68.1%
"CC1(C)C(CO[C@@H]2O[C@H](CO)[C@@H](O)[C@H](O)[C@H]2O)=CC(=O)C2=C1SCC(=O)N2 [compound 9, xanthiside]",remaining activity at 1000 µg/mL,human tyrosinase (hsTYR) [2],76.9%
"O=C(/C=C/c1ccc(O)c(O)c1)O[C@@H]1CC(OC(=O)/C=C/c2ccc(O)c(O)c2)(C(=O)O)C[C@@H](O)C1O (stereo partly drawn) [compound 11, 1,3-dicaffeoylquinic acid]",remaining activity at 1000 µg/mL,human tyrosinase (hsTYR) [3],78.1%
